Columns and labels:
Assay type in all cases: cell-based
Wnt/Beta-Catenin = experiment: SelectScreen CellSensor pathway inhibition, Wnt/Beta-Catenin; details: LEF-TCF-bla HCT116, no stimulus (constitutively activated)
Procedure: (§1) Inhibition of various cellular pathways known to be involved in malignancy was tested using the SelectScreen Cell-based Pathway Profiling GeneBLAzer™ cell signaling pathway specific CellSensor™ cell lines ((Thermo Fisher). The assay is based on a beta-lactamase reporter activity which is modulated and can be measured quantitatively and selectively with the LiveBLAzer™-FRET B/G Loading Substrate. SelectScreen Cell-Based Pathway Profiling Service uses XLfit from IDBS. The dose response curve is curve fit to model number 205 (sigmoidal dose-response model). Custom logic was built by Thermo Fisher for the data analysis tool to address the different compound characteristics that can be observed with functional assays.
Wnt/Beta-Catenin—LEF-TCF-bla HCT116—Inhibitor Screen, Constitutively Activated
LEF-TCF-bla HCT116 cells are thawed and resuspended in Assay Media (OPTI-MEM, 0.5% dialyzed FBS, 0.1 mM NEAA, 1 mM Sodium Pyruvate, 100 U/mL/100 μg/mL Pen/Strep) to a concentration of 312,500 cells/mL. 32 μL of cell suspension is added to each well of a 384-well Poly-D-Lysine assay plate. Cells in Assay Media are incubated for 16-24 hours in the plate at 37° C./5% CO2 in a humidified incubator. 4 μL of a 10× serial dilution of ICG-001 (control inhibitor starting concentration, 25,000 nM) or compounds are added to appropriate wells of the plate. […] The plate is read on a fluorescence plate reader.

Oxidative Stress = experiment: SelectScreen CellSensor pathway inhibition, Oxidative Stress; details: ARE-bla HepG2, stimulus tBHQ
Procedure: as §1
Oxidative Stress—ARE-bla HepG2—Inhibitor Screen, Activated by tBHQ
ARE-bla HepG2 cells are thawed and resuspended in Assay Media (DMEM, 10% dialyzed FBS, 25 mM HEPES pH 7.3, 0.1 mM NEAA, 100 U/mL/100 μg/mL Pen/Strep) to a concentration of 375,000 cells/mL. 32 μL of cell suspension is added to each well of a 384-well Poly-D-Lysine assay plate. Cells in Assay Media are incubated for 16-24 hours in the plate at 37° C./5% CO2 in a humidified incubator. […] The plate is read on a fluorescence plate reader.

[1] = biological target: Toll-like Receptor (TLR4); experiment: SelectScreen CellSensor pathway inhibition, Toll-like Receptor (TLR4); details: NFkB-bla THP-1, stimulus LPS
Procedure: as §1
Toll-like Receptor (TLR4)—NFKB-bla THP-1—Inhibitor Screen, Activated by LPS
NFKB-bla THP-1 cells are thawed and resuspended in Assay Media (RPMI, 0.5% dialyzed FBS, 0.1 mM NEAA, 1 mM Sodium Pyruvate, 100 U/mL/[…] Pen/Strep) to a concentration of 625,000 cells/mL. 32 μL of cell suspension is added to each well of a 384-well TC-Treated assay plate. Cells in Assay Media are incubated for 16-24 hours in the plate at 37° C./5% CO2 in a humidified incubator. […] The plate is read on a fluorescence plate reader.

JAK/STAT = experiment: SelectScreen CellSensor pathway inhibition, JAK/STAT; details: ISRE-bla Jurkat, stimulus IFN-alpha
Procedure: as §1
JAK/STAT—ISRE-bla HEK 293T—Inhibitor Screen, Activated by IFN-Alpha
ISRE-bla HEK 293T cells are thawed and resuspended in Assay Media (OPTI-MEM, 0.5% dialyzed FBS, 0.1 mM NEAA, 1 mM Sodium Pyruvate, 100 U/mL/[…] Pen/Strep) to a concentration of 625,000 cells/mL. 32 μL of cell suspension is added to each well of a 384-well TC-Treated assay plate. Cells in Assay Media are incubated for 16-24 hours in the plate at 37° C./5% CO2 in a humidified incubator. […] 4 μL of 10× control activator IFN-alpha at the pre-determined EC80 concentration is added to wells containing the control inhibitor or compounds. […] The plate is read on a fluorescence plate reader.

With O=C1[C@H](Cc2ccc(O)cc2)N2C(=O)CCN(C(=O)NCc3ccccc3)[C@H]2CN1Cc1cccc2ccccc12 [ICG-001, reference compound] the IC50 (Wnt/Beta-Catenin) was 1.83 µM.

Cn1cc(C2=C(c3cn(CCCSC(=N)N)c4ccccc34)C(=O)NC2=O)c2ccccc21 [Ro-31-8220, reference compound] was tested, and the IC50 (Oxidative Stress) was 1.67 µM and the IC50 [1] was 0.46 µM.

In the case of JAK Inhibitor I [reference compound], the IC50 (JAK/STAT) is reported as 0.019 µM.

From patent US20260028364A1, “CATIONIC CHROMENONES AND THEIR USE IN ONCOLOGY” (FLORATEK PHARMA S.A., priority 2022, published 2026)
